Laboratory results as given in patent US10344019B2 (priority 2010, dated 2019).
Where two headings read alike, the source gives them in different places.

What was measured:
Assay type in all cases: cell-based
[1] = tested on: HCV 3a RLuc cells (NS5A chimeric genotype 1b Con1 replicon with consensus genotype 3a NS5A gene); experiment: microbe, parasite or virus in culture; details: Hepatitis C virus
Method in brief: (§1)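 Replicon cells stably carrying the listed RLuc-encoding dicistronic replicons were seeded and treated with DMSO serial dilutions of compound (10 mM stocks) diluted into culture medium. After 72 h, cells were lysed and Renilla luciferase activity measured. EC50 was derived by non-linear regression.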

[2] = tested on: HCV 1a RLuc cells (dicistronic genotype 1a H77 replicon, RLuc reporter); experiment: microbe, parasite or virus in culture; details: Hepatitis C virus, read-out: 1a
Method in brief: (§2)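 Replicons used: genotype 1b Con1, 1a H77, 2a JFH-1, and a 2a JFH-1 chimera with J6-strain NS5A (M31 present), all dicistronic.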

[3] = tested on: HCV 1b RLuc cells (dicistronic genotype 1b Con1 replicon, RLuc reporter); experiment: microbe, parasite or virus in culture; details: Hepatitis C virus, read-out: 1b (nM)
Method in brief: as §2

[4] = tested on: HCV 2a JFH-1 Rluc cells (dicistronic genotype 2a JFH-1 replicon, RLuc reporter); experiment: microbe, parasite or virus in culture; details: Hepatitis C virus, read-out: 2a JFH
Method in brief: as §2

[5] = tested on: HCV 4a Rluc cells (NS5A chimeric genotype 1b Con1 replicon with genotype 4a NS5A gene); experiment: microbe, parasite or virus in culture; details: Hepatitis C virus, read-out: 4a
Method in brief: as §1

[6] = tested on: HCV 2a Rluc cells (NS5A chimeric genotype 2a JFH-1 replicon with genotype 2a J6 strain NS5A gene, M31 present); experiment: HCV replicon reporter assay, genotype 2a J6 (M31 present); details: Hepatitis C virus, read-out: 2a J6
Method in brief: as §2

[7] = tested on: Q30R in genotype 1a NS5A, 1a Rluc replicon transfected into Huh-7 cured-51 cells; experiment: HCV replicon assay, resistance mutant 1a Q30R; details: Hepatitis C virus, Huh-7, read-out: 1a Q30R
Description: Evaluation of cell-based anti-HCV activity: Antiviral potency (EC50) was determined using a Renilla luciferase (RLuc)-based HCV replicon reporter assay. To perform the assay for genotype 1 and 2a JFH-1, HCV 1b RLuc cells (harboring a dicistronic genotype 1b Con1 replicon that encodes a RLuc reporter), or HCV 1a RLuc cells (harboring a dicistronic genotype 1a H77 replicon that encodes a RLuc reporter), or HCV 2a JFH-1 Rluc cells (harboring a dicistronic genotype 2a JFH-1 replicon that encodes a RLuc reporter) were dispensed into 384-well plates. To perform the assay for genotype 2a (with M31 present) or 2b, HCV 2a Rluc or 2b Rluc cells (both with M31 present) harboring a dicistronic NS5A chimeric genotype 2a JFH-1 replicon that encodes a RLuc reporter and either genotype 2a J6 strain NS5A gene or genotype 2b MD2b-1 NS5A gene (based on Los Alamos HCV database isolates, both with M31 present) respectively, were dispensed into 384-well plates. To perform the assay for genotype 3 and 4, HCV 3a RLuc or 4a Rluc cells harboring a dicistronic NS5A chimeric genotype 1b Con1 replicon that encodes a RLuc reporter and either a consensus genotype 3a NS5A gene or genotype 4a NS5A gene (based on Los Alamos HCV database isolates) respectively, were dispensed into 384-well plates. Compounds were re-suspended in DMSO at a concentration of 10 mM and serially diluted in DMSO either manually or using an automated pipeting instrument. Serially diluted compounds were mixed with cell culture media and added to the seeded cells. […] 72 hours later, cells were lysed and Renilla luciferase activity quantified as recommended by the manufacturer (Promega-Madison, Wis.). Non-linear regression was performed to calculate EC50 values.
To determine the antiviral potency (EC50) against resistance mutants, resistance mutations, including M28T, Q30R, Q30H, L31M, and Y93C in genotype 1a NS5A and Y93H in genotype 1b NS5A, were introduced individually into either 1a Rluc or 1b Rluc replicons described above by site directed mutagenesis. Replicon RNA of each resistant mutant was transfected into Huh-7 cured-51 cells and antiviral potency was determined on these transfected cells as described above.

[8] = tested on: HCV 2b Rluc cells (NS5A chimeric genotype 2a JFH-1 replicon with genotype 2b MD2b-1 NS5A gene, M31 present); experiment: microbe, parasite or virus in culture; details: Hepatitis C virus, read-out: 2b
Method in brief: as §1

[9] = read-out: 3a, genotype 3a NS5A chimeric replicon
[10] = genotype 2a JFH-1 RLuc replicon

Compound	EC50 ([1]; read-out: 3a, genotype 3a replicon) [nM]	EC50 ([2]; genotype 1a replicon) [nM]	EC50 [3] [nM]	EC50 ([4]; genotype 2a JFH-1 replicon) [nM]	EC50 [5] [nM]	EC50 [6] [nM]	EC50 [7] [nM]	EC50 [8] [nM]	EC50 [1, 9] [nM]	EC50 ([2]; genotype 1a H77 RLuc replicon) [nM]	EC50 [4, 10] [nM]
COC(=O)N[C@H](C(=O)N1CCC[C@H]1c1nc(Cl)c(-c2cc3c4c(c2)OCc2cc(-c5[nH]c([C@@H]6CCCN6C(=O)[C@@H](NC(=O)OC)C(C)C)nc5Cl)cc(c2-4)OC3)[nH]1)C(C)C [Example 384]	0.001 to 0.99	0.001 to 0.999	0.013	0.001 to 0.999	0.001 to 0.99	1 to 44	1 to 44				
COC(=O)N[C@H](C(=O)N1[C@@H](C)CC[C@H]1c1ncc(-c2cc3c4c(c2)OCc2cc(-c5cnc([C@@H]6C[C@H](C)CN6C(=O)[C@H](NC(=O)OC)c6ccccc6)[nH]5)cc(c2-4)OC3)[nH]1)C(C)C [Example 586]			0.011			0.001 to 0.999	0.001 to 0.999	0.001 to 0.999	0.001 to 0.99	0.001 to 0.999	0.001 to 0.999
CC#Cc1cc2nc([C@@H]3CCCN3C(=O)[C@@H](NC(=O)OC)C(C)C)[nH]c2c2ccc(-c3ccc4c(ccc5nc([C@@H]6C[C@H](COC)CN6C(=O)[C@H](N)c6ccccc6)[nH]c54)c3)cc12 [Example 593]			0.014			0.001 to 0.999	1 to 44	1 to 44	0.001 to 0.99	0.001 to 0.999	0.001 to 0.999
COC[C@H]1C[C@@H](c2nc3ccc4cc5c(cc4c3[nH]2)OCc2cc(-c3cnc([C@@H]4CC[C@H](C)N4C(=O)[C@@H](NC(=O)OC)C(C)C)[nH]3)ccc2-5)N(C(=O)[C@H](NC(=O)OC)c2ccccc2)C1 [Example 594]			0.013			0.001 to 0.999	0.001 to 0.999	0.001 to 0.999	0.001 to 0.99	0.001 to 0.999	0.001 to 0.999
COC[C@H]1C[C@@H](c2ncc(-c3cc4c5c(c3)OCc3cc(-c6cnc([C@@H]7CC[C@H](C)N7C(=O)[C@@H](NC(=O)OC)C(C)C)[nH]6)cc(c3-5)OC4)[nH]2)N(C(=O)[C@@H](NC(=O)OC)C(C)C)C1 [Example 595]			0.02		0.001 to 0.99	> 44		1 to 44	0.001 to 0.99	0.001 to 0.999	0.001 to 0.999
CC[C@H](C)[C@H](NC(=O)OC)C(=O)N1C[C@@H](COC)C[C@H]1c1nc2ccc3cc4c(cc3c2[nH]1)OCc1cc(-c2cnc([C@@H]3CC[C@H](C)N3C(=O)[C@@H](NC(=O)OC)[C@@H](C)CC)[nH]2)ccc1-4 [Example 597]			0.005			0.001 to 0.999	0.001 to 0.999	0.001 to 0.999	0.001 to 0.99	0.001 to 0.999	0.001 to 0.999
COC[C@H]1C[C@@H](c2nc3ccc4cc(-c5ccc6c(ccc7nc([C@@H]8CCCN8C(=O)[C@@H](NC(=O)OC)C(C)C)[nH]c76)c5)ccc4c3[nH]2)N(C(=O)[C@H](N)c2ccccc2)C1 [Example 598]			0.022			0.001 to 0.999	0.001 to 0.999	0.001 to 0.999		0.001 to 0.999	0.001 to 0.999
COC[C@H]1C[C@@H](c2ncc(-c3ccc4c(c3)COc3cc5c(ccc6nc([C@@H]7CC[C@H](C)N7C(=O)[C@@H](NC(=O)OC)C(C)C)[nH]c65)cc3-4)[nH]2)N(C(=O)[C@H](NC(=O)OC)c2ccccc2)C1 [Example 599]						0.001 to 0.999	0.001 to 0.999	0.001 to 0.999	0.001 to 0.99	0.001 to 0.999	0.001 to 0.999
